Assays:
[1] = Retest of Form C after storage at ambient conditions; type: physicochemical; conditions: 6 days storage at ambient conditions
[2] = test system: mouse model of generalised seizure (tonic hind limb extensor convulsions); experiment: Maximal electroshock seizure threshold (MEST) test in the mouse; conditions: for % change from vehicle (CC50) / CC50 +/- SEM: 30 min post dose
Description: The efficacy of compound 1 was tested in a mouse model of generalised seizure, the maximal electroshock seizure threshold (MEST) test.
The maximal electroshock seizure threshold (MEST) test is widely utilized preclinically to evaluate pro-or anti-convulsant properties of test compounds (Loscher et al., 1991).
In the MEST test the ability of a drug to alter the seizure threshold current required to induce hind limb tonic extensor convulsions is measured according to an “up and down” method of shock titration (Kimball et al., 1957). An increase in seizure threshold is indicative of anti-convulsant effect.
The ability of a test compound to alter the stimulus intensity, expressed as current (mA), required to induce the presence of tonic hind limb extensor convulsions, is assessed in the MEST.
Naïve mice were acclimatised to the procedure room in their home cages for up to 7 days, with food and water available ad libitum.
All animals were weighed at the beginning of the study and randomly assigned to treatment groups based on a mean distribution of body weight across groups.
The first animal within a treatment group was given a shock at the expected or estimated CC50 current. For subsequent animals, the current was lowered or raised depending on the convulsions outcome from the preceding animal, in intervals of 5 mA.
Data generated from each treatment group were used to calculate the CC50+SEM values for the treatment group.
Vehicle: (5% ethanol, 10% solutol, 85% Saline) was prepared as follows: 1 mL of ethanol, 2 mL of solutol were warmed to 60° C., in 17 mL of saline (1:2:17).
The test compound (compound 1) was administered at 2, 20 and 200 mg/kg (i.p.) in a 1:2:17 ethanol: solutol: 0.9% saline formulation.
The data for each treatment group were recorded as the number of +'s and 0's at each current level employed and this information is then used to calculate the CC50 value (current required for 50% of the animals to show seizure behaviour)±standard error.
Test compound effects were also calculated as percentage change in CC50 from the vehicle control group.
Significant difference between drug-treated animals and controls were assessed according to Litchfield and Wilcoxon (1949).

[3] = Stability of Form B to milling (ball mill, XRPD); type: physicochemical; conditions: no solvent, mill at 25 Hz, 3 x 2 mins; for Output Form (milling experiment): XRPD
Description: A ball mill was used to mimic the effects of grinding that would be experienced during formulation steps such as dry blending and wet granulation. Form B (50 mg) was added to a milling chamber with an agate milling ball. Using a Retsch MM200 mixer mill, the material was milled for 6-10 minutes at a frequency of 25 Hz. Periodically, the milling was stopped and powder that adhered to the milling chamber was scraped down. The resultant milled material was analysed using XRPD.

[4] = Stability of Form B to compression (die press, XRPD); type: physicochemical; conditions: compression @ 370 MPa for 24 hrs; for Output Form (compression experiment): XRPD
Description: A die press was used to mimic the uniaxial stress experienced during formulation steps such as tableting. Form B (50 mg) was added to a KBr pellet die and compressed overnight at ˜370 MPa using a hydraulic press. The resultant solid disc was removed from the press and immediately analysed by XRPD.

[5] = Stability of Form B to humidity stress (XRPD); type: physicochemical; conditions: 40° C./75% RH for 8 days
Description: Form B material was exposed to high humidity conditions to determine stability on storage. Approximately 20 mg of Form B material was added to a vial and placed unsealed into a sealed cabinet with a relative humidity of 75% (controlled by a super-saturated salt solution) and a temperature of 40° C. for 8 days. The resultant material was analysed by XRPD.

## C=C(C)[C@@H]1CCC(C)=C[C@H]1c1c(O)cc(-c2cnn(C)c2)cc1O [Form C, (1′R,2′R)-5′-methyl-4-(1-methyl-1H-pyrazol-4-yl)-2′-(prop-1-en-2-yl)-1′,2′,3′,4′-tetrahydro-[1,1′-biphenyl]-2,6-diol]
[1]
  Form after storage: converted to a Form A

## CN1C(=O)CN=C(c2ccccc2)c2cc(Cl)ccc21 [Diazepam, diazepam, reference compound]
[2]; i.p., 2.5 mg/kg
  % change from vehicle (CC50): 223%

## C=C(C)[C@@H]1CCC(C)=C[C@H]1c1c(O)cc(-c2cnn(C)c2)cc1O [Compound 1, (1′R,2′R)-5′-methyl-4-(1-methyl-1H-pyrazol-4-yl)-2′-(prop-1-en-2-yl)-1′,2′,3′,4′-tetrahydro-[1,1′-biphenyl]-2,6-diol]
[2]; i.p., 2 mg/kg
  % change from vehicle (CC50): 27%
  CC50 +/- SEM: 30.8 ± 1.0 mA
[2]; i.p., 20 mg/kg
  % change from vehicle (CC50): 116%
  CC50 +/- SEM: 52.5 ± 1.3 mA
[2]; i.p., 200 mg/kg
  % change from vehicle (CC50): 712%
  CC50 +/- SEM: 197.5 ± 20.4 mA
[2]; i.p., 2, 20 and 200 mg/kg
  Effect on MEST (in words): dose-related increase in MEST
[2]; i.p., 30 minutes before the test, all three doses (2, 20, 200 mg/kg)
  CC50 value compared to vehicle (in words): statistically significant

## C=C(C)[C@@H]1CCC(C)=C[C@H]1c1c(O)cc(-c2cnn(C)c2)cc1O [Form B, (1′R,2′R)-5′-methyl-4-(1-methyl-1H-pyrazol-4-yl)-2′-(prop-1-en-2-yl)-1′,2′,3′,4′-tetrahydro-[1,1′-biphenyl]-2,6-diol]
[3]
  Result (milling experiment): solid
  Output Form (milling experiment): did not undergo a change in form
[3]; listed as B
  Output Form (milling experiment): B (disordered)
[4]
  Result (compression experiment): solid
  Output Form (compression experiment): stable to compression
[4]; listed as B
  Output Form (compression experiment): B (slight disorder)
[5]
  Result (humidity stress experiment): solid
[5]; XRPD
  Output Form (humidity stress experiment): stable to storage

— US20250376446A1, “[…] OF A […] CANNABINOID” (Jazz Pharmaceuticals Research UK Limited, priority 2022, published 2025)
